{"source": "patent US20240409935A1", "about": "“Atg8ylation coordinates stress granule formation and mTOR inactivation in response to lysosomal damage” (priority 2023, published 2024)", "key": {"[1]": {"tested_on": "DCP1a puncta (P-bodies) in U2OS cells", "assay": "HCM quantification of DCP1a puncta (P-body formation) in U2OS cells", "type": "cell-based, human", "conditions": "2 mM LLOMe for 30 min"}, "[2]": {"tested_on": "U2OS wildtype (WT) and ΔΔG3BP1/2 cells", "assay": "Propidium iodide (PI) uptake cell death assay (HCM) in U2OS WT and ΔΔG3BP1/2 cells", "type": "cell-based, human", "conditions": "ΔΔG3BP1/2 cells compared to wildtype U2OS cells, 2 mM LLOMe for 30 min", "experimental": "Cells Were treated with 2 mM LLOMe for 30 min, and then stained with propidium iodide (PI) (dead cells) and Hoechst-33342 (total cells). White masks, algorithm-defined cell boundaries (primary objects); red masks, computer-identified PI^+ nuclei (target objects). […] Cells Were treated with 2 mM LLOMe for 30 min. […] Cells Were treated with 2 mM in the presence or absence of 10 μg/ml cycloheximide (CHX) for 30 min, and then stained with PI (dead cells) and Hoechst-33342 (total cells). […] Scale bar, 10 μm. […] Cells Were treated with 2 mM LLOMe with or without CHX for 30 min, and then stained using Live/Dead™ stain kit (ThermoFisher). […] (i) HCM images: white masks, algorithm-defined cell boundaries; green masks, computer-identified eIF4G puncta; red masks, computer-identified PI^+ nuclei (target objects); (ii and iii) corresponding HCM quantification. […]\nHow does SG formation affect cell fate during lysosomal damage? […] The inventors quantified the number of SGs using the canonical SG marker polyA RNA (Ivanov et al., 2019) via high-content microscopy (HCM) (FIG. S1B) and verified the depletion of SG formation in ΔΔG3BP1/2 cells when exposed to the lysosome-specific damaging agent L-leucyl-L-leucine methyl ester (LLOMe) (Jia et al., 2022; Tan et al., 2022; Thiele et al., 1990) (FIG. 7SB). […]"}}}
{"smiles": "COC(=O)[C@H](CC(C)C)NC(=O)[C@@H](N)CC(C)C", "note": "[LLOMe, L-leucyl-L-leucine methyl ester]", "values": [{"measurement": "P-body formation (DCP1a marker)", "setting": "[1]", "value": "did not induce P-body"}, {"measurement": "cell death by PI uptake assay", "setting": "[2]", "value": "significant cell death"}]}
